Results reported in US12084444B2, “Spiro-lactam NMDA modulators and methods of using same” (Tenacia Biotechnology (Hong Kong) Co., Limited, priority 2016, dated 2024).

What was measured:
[1] = tested on: rats; assay: Positive emotional learning (PEL) test, 50-kHz ultrasonic vocalizations; assay type: in vivo, rat; settings: dose range 0.001-1 mg/kg, orally; tested one hour after administration
Procedure: Experiments were conducted as described in Burgdorf et al., “The effect of selective breeding for differential rates of 50-kHz ultrasonic vocalizations on emotional behavior in rats,” Devel. Psychobiol., 51:34-46 (2009). Rat 50-kHz ultrasonic vocalization (hedonic USVs) is a validated model for the study of positive affective state and is best elicited by rough-and-tumble play.
The PEL assay measures the acquisition of positive (hedonic) 50-kHz ultrasonic vocalizations (USVs) to a social stimulus, heterospecific rough and tumble play stimulation. Heterospecific rough-and-tumble play stimulation was administered by the experimenter's right hand. […] High frequency ultrasonic vocalizations (USVs) were recorded and analyzed by sonogram with Avasoft SASlab Pro (Germany) as previously described by Burgdorf et al., “Positive emotional learning is regulated in the medial prefrontal cortex by GluN2B-containing NMDA receptors,” Neuroscience, 192:515-523 (2011). Frequency modulated 50-kHz USVs that occurred during each of the no-stimulation periods were quantified to measure PEL. […] Positive emotional learning was measured during the conditioned stimulus (CS) trials preceding the tickle unconditioned stimulus (UCS) trials. […]

[2] = tested on: Sprague Dawley rats; assay: Bennett model of mechanical analgesia (sciatic nerve chronic constriction injury); assay type: in vivo
Procedure: The Bennett model of mechanical analgesia is used to assess the analgesic effects of compounds as measured by paw withdrawal threshold. Bennett G J, Xie Y K, “A peripheral mononeuropathy in rat that produces disorders of pain sensation like those seen in man,” Pain 33:87-107, 1988. […] Vehicle animals receive the surgery and then receive vehicle rather than test compound. Animals were tested 1 hr, 24 h and 1 wk post-test compound or vehicle administration.
Male 2-3 month old Sprague Dawley rats were used. Harlan was the supplier for all studies. Rats were housed in Lucite cages with aspen wood chip bedding, maintained on a 12:12 light:dark cycle (lights on at 5 AM), and given ad libitum access to Purina lab chow (USA) and tap water throughout the study.
Rats were anesthetized using inhaled isoflurane (2.5%). Sciatic nerve chronic constriction nerve injury surgery was performed as previously described (Bennett and Xie, 1988). An incision (˜1.5 cm in length) was made with a scalpel blade dorsally through skin on the right hind limb, parallel and posterior to femur. Using a small pointed hemostat, the biceps femoris and gluteus superficialis muscles were separated. Using curved blunt forceps, the common sciatic nerve was isolated and exposed. For the mechanical analgesia studies, the whole sciatic nerve was ligated. Using hemostats/forceps and chromic gut (5-0), the nerve was loosely ligated with a square knot; 3 ligatures, 1 mm apart were placed on the nerve. […] Testing occurred approximately 2 weeks post-surgery.
During testing, rats were acclimated to the surface of a suspended wire mesh grid (1 cm×1 cm, with the wire being 0.3 cm in diameter) for 15-20 min. Starting from the smallest, each Von Frey filament was pressed perpendicularly to the plantar surface of the affected (ipsilateral) hind paw until slightly bent and then held for 6 second. If an obvious hind paw withdrawal or a flinching behavior immediately after the withdrawal of the filament was not observed, the next larger filament was used in the same manner. In case of a response, a lower filament was used. This was repeated until six responses were collected.
For all studies, animals were baselined prior to study start to test for allodynia (defined as a paw withdrawal threshold under 5). A subset of animals was tested with gabapentin (150 mg/kg, PO) to ensure at least 50% analgesia. Once it was confirmed animals were ready for study initiation, animals were balanced across groups. All study investigators were blind to treatment conditions. Animals were dosed with 0.1, 1, 10, or 30 mg/kg of test compound via oral gavage (PO), control sets of animals were dosed with gabapentin (150 mg/kg, PO) or vehicle (0.5% Na-CMC in 0.9% sterile saline, PO). Testing occurred 1 h post-dosing with animals retested 24 hrs and 1 week post-dosing. The percent analgesia calculations for each animal were made using the following equation: % analgesia=[(log(x)−y)/((log (z)−y)]*100, where x=the paw withdrawal threshold for the drug-treated animal in grams, y=the average of the log(x) values for the vehicle treated group, and z=the paw withdrawal threshold for naïve animals in grams (historical value of 15 used). The results for Compound AA-2, where the percentage of analgesia is measured at 1 hour, 24 hours, and 1 week after compound administration are as follows: for 0.1 mg/kg dose: 22.3% at 1 h, 1.6% at 24 h, and 2.3% at 1 wk; for 1 mg/kg dose: 19.2% at 1 h, 10.7% at 24 h, and 11.0% at 1 wk; for 10 mg/kg dose: 38.1% at 1 h, 24.3% at 24 h, and 41.4% at 1 wk; and for 30 mg/kg dose: 24.4% at 1 h, 8.7% at 24 h, and 34.5% at 1 wk.

With `COc1ccc(CN2C[C@@]3(CCNC(=O)C3)C2=O)cc1` [Compound AA-2, 2-(4-methoxybenzyl)-2,7-diazaspiro[3.5]nonane-1,6-dione] the “maximum effect, mean number of 50 kHz USVs per 15 seconds” value [1] was 10.1-20 50 kHz USVs per 15 seconds, the “% analgesia” value ([2]; 0.1 mg/kg PO, 1 wk) was 2.3% and the “% analgesia” value ([2]; 0.1 mg/kg PO, 1 h) was 22.3%. For the same compound, the “% analgesia” value ([2]; 0.1 mg/kg PO, 24 h) was 1.6%, the “% analgesia” value ([2]; 1 mg/kg PO, 1 wk) was 11.0% and the “% analgesia” value ([2]; 1 mg/kg PO, 1 h) was 19.2%. The “% analgesia” value ([2]; 1 mg/kg PO, 24 h) was 10.7%, the “% analgesia” value ([2]; 10 mg/kg PO, 1 wk) was 41.4% and the “% analgesia” value ([2]; 10 mg/kg PO, 1 h) was 38.1%. The “% analgesia” value ([2]; 10 mg/kg PO, 24 h) was 24.3%, the “% analgesia” value ([2]; 30 mg/kg PO, 1 wk) was 34.5% and the “% analgesia” value ([2]; 30 mg/kg PO, 1 h) was 24.4%. For the same compound, the “% analgesia” value ([2]; 30 mg/kg PO, 24 h) was 8.7%.
